Blank lines part the entries; values can stand above or below the compound they belong to. Active and inactive are the calls of the source.
What was measured:
[1] = target: T1, Sentrin-specific protease 8 (Homo sapiens, UniProt Q96LD8); type: functional
T1 sequence (Q96LD8 whole entry): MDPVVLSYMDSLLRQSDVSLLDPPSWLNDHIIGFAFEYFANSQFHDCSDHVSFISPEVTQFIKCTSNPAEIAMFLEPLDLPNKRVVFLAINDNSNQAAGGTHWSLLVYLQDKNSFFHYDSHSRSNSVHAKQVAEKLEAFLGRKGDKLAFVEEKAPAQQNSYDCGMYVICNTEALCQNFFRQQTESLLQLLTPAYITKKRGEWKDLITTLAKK

[2] = target: T1, Sentrin-specific protease 8; type: functional; remark: listed apart in the source
Kallikrein-7 = Kallikrein-7 (Homo sapiens, UniProt P49862); test: Fluorescence Intensity-based biochemical primary high throughput dose response assay to identify activators of kallikrein-7 (K7) zymogen.
Kallikrein-7, sequence (P49862 whole entry, the tested form may be a part): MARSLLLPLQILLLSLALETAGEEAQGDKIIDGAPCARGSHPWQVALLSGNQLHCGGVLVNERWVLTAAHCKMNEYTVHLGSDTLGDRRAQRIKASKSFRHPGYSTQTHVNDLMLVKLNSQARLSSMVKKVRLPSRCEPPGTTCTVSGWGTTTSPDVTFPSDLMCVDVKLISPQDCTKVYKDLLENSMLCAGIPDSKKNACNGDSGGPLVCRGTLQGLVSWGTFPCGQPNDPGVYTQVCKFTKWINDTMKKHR

[3] = target: T2, Oxysterols receptor LXR-beta (Homo sapiens, UniProt P55055); type: functional, cell-based;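 note: Cell-based luminescence dose-response assay of agonist activity at LXR, run as a confirmatory counterscreen to a daf-12 agonist screen; HEK293 cells with Gal4-LXR fusion and GAL4-driven luciferase reporter; agonist potency from rising luciferase signal of a Gal4-LXR reporter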
T2 sequence (P55055 whole entry): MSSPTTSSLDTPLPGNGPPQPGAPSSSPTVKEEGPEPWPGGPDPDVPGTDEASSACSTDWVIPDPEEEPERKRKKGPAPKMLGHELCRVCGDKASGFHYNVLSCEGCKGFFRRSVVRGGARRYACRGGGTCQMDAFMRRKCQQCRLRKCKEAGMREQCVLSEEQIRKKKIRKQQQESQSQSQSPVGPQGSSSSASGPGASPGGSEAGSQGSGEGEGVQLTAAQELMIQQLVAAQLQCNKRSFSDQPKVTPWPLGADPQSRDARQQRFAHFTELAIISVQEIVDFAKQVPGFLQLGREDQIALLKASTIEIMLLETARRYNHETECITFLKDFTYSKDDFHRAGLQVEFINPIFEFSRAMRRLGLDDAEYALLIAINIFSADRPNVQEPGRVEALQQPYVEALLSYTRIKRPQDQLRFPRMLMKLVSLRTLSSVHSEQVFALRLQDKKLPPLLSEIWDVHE

Prothrombin = Prothrombin (Bos taurus, UniProt P00735); test: thrombin protease inhibitors – biochemical, fluorescence polarization, uHTS hits, dose response (AID 602369); type: functional
[4] = target: Tyrosine-protein phosphatase non-receptor type 5 (Homo sapiens, UniProt P54829); test: PTPN5 enzyme inhibition – biochemical, fluorescence intensity, uHTS hits, confirmation (AID 602372); type: functional; details: read-out: IC50_Mean
Tyrosine-protein phosphatase non-receptor type 5, sequence (P54829 whole entry): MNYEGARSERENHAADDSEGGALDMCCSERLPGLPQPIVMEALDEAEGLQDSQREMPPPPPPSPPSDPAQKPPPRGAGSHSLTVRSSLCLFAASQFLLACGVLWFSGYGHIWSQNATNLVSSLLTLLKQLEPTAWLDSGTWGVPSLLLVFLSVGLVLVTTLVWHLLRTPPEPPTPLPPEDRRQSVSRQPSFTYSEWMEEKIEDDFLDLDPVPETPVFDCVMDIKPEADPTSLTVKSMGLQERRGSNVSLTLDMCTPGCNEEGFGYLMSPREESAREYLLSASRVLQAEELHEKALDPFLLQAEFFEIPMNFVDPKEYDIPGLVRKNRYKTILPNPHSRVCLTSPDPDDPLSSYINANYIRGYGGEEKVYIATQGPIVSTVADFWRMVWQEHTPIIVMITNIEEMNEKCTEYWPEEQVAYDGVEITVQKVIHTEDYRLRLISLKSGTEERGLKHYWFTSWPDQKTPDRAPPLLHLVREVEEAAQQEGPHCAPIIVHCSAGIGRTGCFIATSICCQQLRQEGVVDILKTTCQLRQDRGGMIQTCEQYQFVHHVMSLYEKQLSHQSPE

[5] = target: T3, Tyrosine-protein phosphatase non-receptor type 22 (Homo sapiens, UniProt Q9Y2R2); test: lymphoid phosphatase LYP inhibitors – biochemical, selectivity assay for STEP inhibitor project, dose response (AID 624241); type: functional
T3 sequence (Q9Y2R2 whole entry): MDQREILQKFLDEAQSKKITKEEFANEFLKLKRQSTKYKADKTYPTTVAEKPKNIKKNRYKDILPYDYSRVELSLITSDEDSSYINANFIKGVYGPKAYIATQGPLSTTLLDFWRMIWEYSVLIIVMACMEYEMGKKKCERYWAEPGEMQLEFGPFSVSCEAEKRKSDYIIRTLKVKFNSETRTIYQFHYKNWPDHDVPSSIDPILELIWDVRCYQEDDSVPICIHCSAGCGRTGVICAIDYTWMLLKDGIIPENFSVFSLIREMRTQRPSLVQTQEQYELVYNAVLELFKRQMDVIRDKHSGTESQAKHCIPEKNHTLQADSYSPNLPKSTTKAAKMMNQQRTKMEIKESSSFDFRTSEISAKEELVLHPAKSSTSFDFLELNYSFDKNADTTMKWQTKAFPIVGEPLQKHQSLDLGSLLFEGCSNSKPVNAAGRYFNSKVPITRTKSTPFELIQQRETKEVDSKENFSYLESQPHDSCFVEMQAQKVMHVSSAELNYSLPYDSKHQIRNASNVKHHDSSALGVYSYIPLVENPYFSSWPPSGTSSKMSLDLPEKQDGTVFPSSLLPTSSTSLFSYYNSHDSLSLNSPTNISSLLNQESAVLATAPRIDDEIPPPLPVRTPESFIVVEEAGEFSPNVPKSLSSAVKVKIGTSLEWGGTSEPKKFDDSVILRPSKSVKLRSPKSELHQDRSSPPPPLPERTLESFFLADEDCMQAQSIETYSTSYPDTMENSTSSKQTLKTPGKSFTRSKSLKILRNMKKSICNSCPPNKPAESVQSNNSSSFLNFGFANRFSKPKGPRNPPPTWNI

[6] = target: Tyrosine-protein phosphatase non-receptor type 11 (Homo sapiens, UniProt Q06124); test: PTPN11 enzyme inhibitors – biochemical, selectivity assay for STEP inhibitor project, dose response (AID 602367); type: functional; details: read-out: IC50_Mean
[7] = target: 26S proteasome non-ATPase regulatory subunit 14 (Homo sapiens, UniProt O00487); test: inhibition of proteasome subunit RPN11 – biochemical, fluorescence polarization, uHTS hits, confirmation (AID 602368); type: functional
26S proteasome non-ATPase regulatory subunit 14, sequence (O00487 whole entry, the tested form may be a part): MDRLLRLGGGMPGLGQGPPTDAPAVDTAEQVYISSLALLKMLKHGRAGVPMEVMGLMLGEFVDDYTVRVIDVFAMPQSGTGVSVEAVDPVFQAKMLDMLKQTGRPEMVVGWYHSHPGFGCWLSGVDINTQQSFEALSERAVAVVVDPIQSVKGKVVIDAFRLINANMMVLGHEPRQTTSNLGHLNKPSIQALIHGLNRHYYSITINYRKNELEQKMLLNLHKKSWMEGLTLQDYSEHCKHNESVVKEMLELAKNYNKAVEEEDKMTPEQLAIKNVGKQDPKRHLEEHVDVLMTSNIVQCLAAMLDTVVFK

[8] = target: T4, Carboxy-terminal domain RNA polymerase II polypeptide A small phosphatase 1 (Homo sapiens, UniProt Q9GZU7); test: CTDSP1 inhibitors, concentration-response, biochemical, absorbance readout, ultra-high-throughput screen actives (AID 540297); type: functional
T4 sequence (Q9GZU7 whole entry): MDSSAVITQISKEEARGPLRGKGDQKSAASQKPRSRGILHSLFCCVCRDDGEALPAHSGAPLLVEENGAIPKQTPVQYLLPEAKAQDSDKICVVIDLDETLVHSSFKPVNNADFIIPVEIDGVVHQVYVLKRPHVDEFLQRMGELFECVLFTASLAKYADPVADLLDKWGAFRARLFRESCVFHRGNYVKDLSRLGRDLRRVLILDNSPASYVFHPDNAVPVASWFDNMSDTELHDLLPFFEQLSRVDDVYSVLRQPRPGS

[9] = target: 72 kDa type IV collagenase (Homo sapiens, UniProt P08253); test: Dose Response validation of uHTS RPN11 inhibitor hits using a MMP-2 Fluorescence assay.; type: functional
72 kDa type IV collagenase, sequence (P08253 whole entry): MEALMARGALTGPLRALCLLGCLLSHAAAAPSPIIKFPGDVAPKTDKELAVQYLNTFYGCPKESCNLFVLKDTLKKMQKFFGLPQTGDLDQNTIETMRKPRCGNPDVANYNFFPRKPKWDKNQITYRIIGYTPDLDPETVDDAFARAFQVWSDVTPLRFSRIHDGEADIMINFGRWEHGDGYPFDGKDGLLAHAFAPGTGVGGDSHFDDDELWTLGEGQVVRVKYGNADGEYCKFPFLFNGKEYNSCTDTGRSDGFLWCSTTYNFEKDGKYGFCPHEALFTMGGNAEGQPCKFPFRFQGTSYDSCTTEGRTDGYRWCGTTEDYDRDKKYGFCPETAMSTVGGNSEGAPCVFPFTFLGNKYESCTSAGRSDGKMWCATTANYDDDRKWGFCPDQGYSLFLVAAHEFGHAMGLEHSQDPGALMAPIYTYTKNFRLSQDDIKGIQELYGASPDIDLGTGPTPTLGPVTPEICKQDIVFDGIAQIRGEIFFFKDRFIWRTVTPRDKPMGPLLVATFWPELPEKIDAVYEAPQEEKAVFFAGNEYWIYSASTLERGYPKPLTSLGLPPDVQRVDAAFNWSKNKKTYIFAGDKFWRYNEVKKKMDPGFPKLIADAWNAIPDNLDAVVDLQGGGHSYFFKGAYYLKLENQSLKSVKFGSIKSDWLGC

[10] = target: Dual specificity protein phosphatase 3 (Homo sapiens, UniProt P51452); test: VHR phosphatase inhibition, dose response, selectivity assay for STEP inhibitor project, biochemical (AID 602374); type: functional; details: read-out: IC50_Mean
Dual specificity protein phosphatase 3, sequence (P51452 whole entry): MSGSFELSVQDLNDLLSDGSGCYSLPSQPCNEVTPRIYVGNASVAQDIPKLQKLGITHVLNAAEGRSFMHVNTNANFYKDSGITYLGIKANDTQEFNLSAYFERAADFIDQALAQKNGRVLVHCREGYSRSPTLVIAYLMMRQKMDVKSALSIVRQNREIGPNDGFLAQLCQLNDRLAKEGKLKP

[11] = OVCAR-3 cell viability loss – plate reader, dry powder samples, PAX8 inhibitor project, dose response (AID 743044); type: functional, cell-based
[12] = OVCAR8 cell viability loss – plate reader, dry powder samples, PAX8 project, dose response (AID 743197); type: functional, cell-based; details: OVCAR-8
Paired box protein Pax-8 = Paired box protein Pax-8 (Homo sapiens, UniProt Q06710); test: PAX8 transcriptional activity inhibition in RMG-I – RMG-I cells, luciferase, cherry-pick, dose response (AID 687027); type: functional, cell-based;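 note: luciferase reporter driven by Pax8 target thyroperoxidase promoter measured by SteadyGlo luminescence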
Paired box protein Pax-8, sequence (Q06710 whole entry): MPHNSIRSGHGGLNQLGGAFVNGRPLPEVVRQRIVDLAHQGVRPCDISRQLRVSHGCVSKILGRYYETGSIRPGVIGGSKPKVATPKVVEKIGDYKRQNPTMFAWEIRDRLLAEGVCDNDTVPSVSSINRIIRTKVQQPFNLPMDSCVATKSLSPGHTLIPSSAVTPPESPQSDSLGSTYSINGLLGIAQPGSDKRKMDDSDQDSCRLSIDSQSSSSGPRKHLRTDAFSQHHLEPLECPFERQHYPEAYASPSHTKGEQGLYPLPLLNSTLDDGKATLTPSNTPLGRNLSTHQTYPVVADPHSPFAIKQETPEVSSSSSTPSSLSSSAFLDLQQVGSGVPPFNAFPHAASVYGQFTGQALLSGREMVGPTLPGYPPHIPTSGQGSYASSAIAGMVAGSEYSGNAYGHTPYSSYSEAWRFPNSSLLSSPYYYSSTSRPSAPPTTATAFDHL

[13] = general mammalian cell viability loss – inhibitor set, cherry-pick, set 2, cytotoxicity control for miR-122 modulator project, dose response (AID 720697); type: functional, cell-based
[14] = general mammalian cell viability loss – activator set, cherry-pick, cytotoxicity control for miR-122 modulator project, dose response (AID 720690); type: functional, cell-based;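 note: HEK293T human cells scored for general mammalian cytotoxicity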
[15] = target: Metabotropic glutamate receptor 3 (Rattus norvegicus, UniProt P31422); test: inhibition of rat mGlu3 glutamate signaling – HEK/GIRK cells, thallium flux, dose response (AID 651839); type: functional
Metabotropic glutamate receptor 3, sequence (P31422 whole entry): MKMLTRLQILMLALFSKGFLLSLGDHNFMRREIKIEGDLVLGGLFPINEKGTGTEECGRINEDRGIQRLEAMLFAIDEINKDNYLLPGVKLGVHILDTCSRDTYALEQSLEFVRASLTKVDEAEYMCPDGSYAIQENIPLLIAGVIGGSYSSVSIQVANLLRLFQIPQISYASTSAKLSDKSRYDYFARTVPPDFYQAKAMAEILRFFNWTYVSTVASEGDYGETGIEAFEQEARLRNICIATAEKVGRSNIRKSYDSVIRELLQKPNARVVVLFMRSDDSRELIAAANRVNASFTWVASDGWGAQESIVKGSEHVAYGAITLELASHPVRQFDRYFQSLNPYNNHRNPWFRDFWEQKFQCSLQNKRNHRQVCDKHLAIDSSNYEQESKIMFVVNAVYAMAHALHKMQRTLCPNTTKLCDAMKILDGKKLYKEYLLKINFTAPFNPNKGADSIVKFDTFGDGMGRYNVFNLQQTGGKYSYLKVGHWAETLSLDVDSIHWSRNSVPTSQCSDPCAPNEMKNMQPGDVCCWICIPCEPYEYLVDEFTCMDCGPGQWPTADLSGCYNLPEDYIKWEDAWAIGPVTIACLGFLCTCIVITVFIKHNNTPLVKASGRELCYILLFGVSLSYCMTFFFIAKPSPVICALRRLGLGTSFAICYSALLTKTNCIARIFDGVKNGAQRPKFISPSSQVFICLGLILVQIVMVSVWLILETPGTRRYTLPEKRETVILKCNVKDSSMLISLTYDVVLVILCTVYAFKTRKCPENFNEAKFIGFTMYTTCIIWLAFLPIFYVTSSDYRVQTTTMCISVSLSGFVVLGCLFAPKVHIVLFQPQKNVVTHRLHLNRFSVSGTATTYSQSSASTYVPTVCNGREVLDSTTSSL

[16] = Counterscreen for activators of the function of SWI/SNF related, matrix associated, actin dependent regulator of chromatin, subfamily a, member 2 (SMARCA2, BRM): Luminescence-based cell-based high throughput dose response assay to identify non-selective compounds using the VP16 reporter assay.; type: functional
[17] = target: SWI/SNF-related matrix-associated actin-dependent regulator of chromatin subfamily A member 2 (Homo sapiens, UniProt P51531); test: Luminescence-based cell-based high throughput dose response assay to identify activators of the function of SWI/SNF related, matrix associated, actin dependent regulator of chromatin, subfamily a, member 2 (SMARCA2, BRM).; type: functional
SWI/SNF-related matrix-associated actin-dependent regulator of chromatin subfamily A member 2, sequence (P51531 whole entry): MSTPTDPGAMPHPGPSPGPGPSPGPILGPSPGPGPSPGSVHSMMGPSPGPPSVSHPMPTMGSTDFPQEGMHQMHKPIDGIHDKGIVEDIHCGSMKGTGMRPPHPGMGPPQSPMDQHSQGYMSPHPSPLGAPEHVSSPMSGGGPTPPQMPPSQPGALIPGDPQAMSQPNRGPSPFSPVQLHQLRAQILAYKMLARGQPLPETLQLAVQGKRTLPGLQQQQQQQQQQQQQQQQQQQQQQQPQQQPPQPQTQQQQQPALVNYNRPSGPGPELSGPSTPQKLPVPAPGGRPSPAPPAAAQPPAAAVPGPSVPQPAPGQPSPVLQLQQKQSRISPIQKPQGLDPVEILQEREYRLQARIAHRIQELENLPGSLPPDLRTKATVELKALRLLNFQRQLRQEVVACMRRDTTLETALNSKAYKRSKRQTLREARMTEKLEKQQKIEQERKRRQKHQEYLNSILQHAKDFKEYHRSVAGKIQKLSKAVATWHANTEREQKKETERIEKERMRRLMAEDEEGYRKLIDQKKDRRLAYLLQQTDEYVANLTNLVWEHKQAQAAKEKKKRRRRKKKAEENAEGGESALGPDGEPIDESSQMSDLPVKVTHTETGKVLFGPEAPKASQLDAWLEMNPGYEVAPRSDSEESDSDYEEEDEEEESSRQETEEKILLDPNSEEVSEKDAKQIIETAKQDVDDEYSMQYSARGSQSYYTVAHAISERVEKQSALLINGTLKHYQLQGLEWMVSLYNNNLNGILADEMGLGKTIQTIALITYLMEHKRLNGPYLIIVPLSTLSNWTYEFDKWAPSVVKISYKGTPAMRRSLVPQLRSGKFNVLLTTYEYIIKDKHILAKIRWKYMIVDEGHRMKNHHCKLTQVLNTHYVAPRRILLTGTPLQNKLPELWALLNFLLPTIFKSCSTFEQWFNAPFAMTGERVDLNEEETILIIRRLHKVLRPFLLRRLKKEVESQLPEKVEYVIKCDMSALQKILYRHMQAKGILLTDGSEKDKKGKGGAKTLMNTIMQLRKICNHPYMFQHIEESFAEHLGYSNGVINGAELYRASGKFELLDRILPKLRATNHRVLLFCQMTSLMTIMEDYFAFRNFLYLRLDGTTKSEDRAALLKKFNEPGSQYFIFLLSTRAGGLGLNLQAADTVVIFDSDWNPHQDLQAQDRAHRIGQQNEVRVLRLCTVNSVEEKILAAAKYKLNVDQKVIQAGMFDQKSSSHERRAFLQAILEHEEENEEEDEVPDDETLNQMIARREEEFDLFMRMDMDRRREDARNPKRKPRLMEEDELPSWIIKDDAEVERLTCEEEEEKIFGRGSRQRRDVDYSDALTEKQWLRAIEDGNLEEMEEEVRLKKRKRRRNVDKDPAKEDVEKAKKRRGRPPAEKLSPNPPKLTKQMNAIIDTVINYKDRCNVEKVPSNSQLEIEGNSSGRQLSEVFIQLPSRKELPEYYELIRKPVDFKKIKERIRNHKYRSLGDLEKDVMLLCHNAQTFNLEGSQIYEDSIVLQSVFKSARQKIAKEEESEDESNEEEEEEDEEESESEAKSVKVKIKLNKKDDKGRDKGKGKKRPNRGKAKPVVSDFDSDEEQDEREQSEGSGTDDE

SMILES: CCC(=O)c1ccc(OCc2cn(CC(=O)c3ccc(O)cc3)nn2)cc1
IC50 [1]: 7.63 µM (active) | IC50 [2]: 12.5 µM (active)

EC50 (Kallikrein-7): > 69.5 µM (inactive)
SMILES: Cc1cccc2c(C(=O)O)c3cccc(C)c3nc12

SMILES: CCCc1nc2c(C)cc(Br)cn2c1Cc1ccc(C)cc1
EC50 [3]: > 67.5 µM (inactive) | EC50 (cells): > 67.5 µM (inactive)

IC50 (Prothrombin): > 100 µM (inactive) | IC50 [4]: 16.5 µM (active) | IC50 [5]: 30.2 µM (inactive) | IC50 [6]: 5.05 µM (active) | IC50 [7]: 22.7 µM (active) | IC50 [8]: 7.91 µM (active) | IC50 [9]: > 100 µM (inactive) | IC50 [10]: 2.84 µM (active)
SMILES: O=C(N/N=C/c1cccnc1)c1ccc(NC(=O)c2cccc(Cl)c2)cc1

SMILES: C[C@@H]1CN([C@H](C)CO)C(=O)c2cc(NC(=O)Cc3ccccc3)ccc2O[C@@H](C)CCCCO[C@H]1CN(C)Cc1ccc(C(F)(F)F)cc1
AC50 [11]: 3.83 µM (active) | AC50 [12]: 63.1 µM (active) | AC50 (Paired box protein Pax-8): 3.98 µM (active) | AC50 [13]: 0.795 µM (active) | AC50 [14]: 13.8 µM (active)

IC50 [15]: 2.17 µM
SMILES: COc1ncc(-c2ccc3cc(C(=O)N4CCCC(CO)C4)ccc3c2)cn1 (centres undefined)

IC50 [15]: 9.35 µM (active)
SMILES: O=C(c1ccc2cc(-c3ccccc3OCc3ccccc3)ccc2c1)N1CCCC(CO)C1 (centres undefined)

SMILES: CC(C)N(C[C@@H]1N[C@@H](CO)[C@@H]1c1ccccc1)S(=O)(=O)c1ccccc1
AC50 [13]: 0.473 µM (active) | AC50 [14]: 32.2 µM (active)

SMILES: COc1ccc(OCc2ccc(/C=N\NC(=O)c3sccc3C)o2)cc1
EC50 [16]: > 91.2 µM (inactive) | EC50 [17]: > 91.2 µM (inactive)

Reference: ChEMBL document CHEMBL1201862, “PubChem BioAssay data set” (2004)
